Test results: PMC6032158, “Structure–Activity Relationship of Piplartine and Synthetic Analogues against Schistosoma mansoni and Cytotoxicity to Mammalian Cells” (International Journal of Molecular Sciences, 2018)

Tested on: 49-day-old S. mansoni adult worms
Test: In vitro experiments with adult worms of S. mansoni (mortality, motor activity)
Type: cell-based, Schistosoma mansoni
Conditions: 2 µM, male worms
Experimental: The Belo Horizonte (BH) strain of S. mansoni was maintained in Biomphalaria glabrata snails and Mesocricetus auratus hamsters at the Adolfo Lutz Institute (São Paulo, Brazil) according to standard procedures. Detailed methods for the infection of molluscs and hamsters, as well as for the recovery of parasites, were as described previously. Briefly, the intermediate host snails were exposed to light for approximately 3 h and cercariae of S. mansoni were subsequently harvested. […] All animals were handled in strict accordance with good animal practice as defined by the Animal Use Ethics Committee. The preparations and culture of schistosomes was performed as previously described. Briefly, hamsters were killed 49 days after infection for the recovery of adult schistosomes. Next, fresh adult worm pairs (male and female) were washed and placed in a 24-well culture plate (TPP, St. […] Adult schistosomes were maintained continuously in medium (with or without drugs) for 96 h as described below. In vitro assays in S. mansoni adults were performed with mated males and females. The worm pairs obtained from the infusion hamsters were washed twice with RPMI 1640 medium containing 200 U/mL penicillin, 200 μg/mL streptomycin and 2 μg/mL amphotericin B (Vitrocell, Campinas, Brazil). The mated parasites were then transferred into 24-well cell culture plates (TPP, St. […] Cultures of adult worms were monitored by microscopy or magnifying glass. The effect of the drug was assessed with emphasis on changes in worm motor activity and death of worms as previously described.

O=C(C1CCCCC1)N1CC(=O)N2CCc3ccccc3C2C1 (stereo not drawn) [Praziquantel, praziquantel, reference compound]
Dead Worms (%) M (24 h): 100%
Motor Activity Reduction (%) Significant M (24 h): 100%
Motor Activity Reduction (%) Slight M (24 h): 0%
Dead Worms (%) M (48 h): 100%
Motor Activity Reduction (%) Significant M (48 h): 100%
Motor Activity Reduction (%) Slight M (48 h): 0%
Dead Worms (%) M (72 h): 100%
Motor Activity Reduction (%) Significant M (72 h): 100%
Motor Activity Reduction (%) Slight M (72 h): 0%
Dead Worms (%) M (96 h): 100%
Motor Activity Reduction (%) Significant M (96 h): 100%
Motor Activity Reduction (%) Slight M (96 h): 0%
